Marks after values point to notes of the source that are not given here. Square brackets hold non-standard residues; d marks the D form. Peptide text beside a SMILES is read from it. 1Nal = N[C@@H](Cc1cccc2ccccc12)C(=O)O; 2Nal = N[C@@H](Cc1ccc2ccccc2c1)C(=O)O; Nle = CCCC[C@H](N)C(=O)O; Abu = CC[C@H](N)C(=O)O
Assays:
[1] = target: T1, uPA1–48:uPAR complexes binding to vitronectin (Homo sapiens, UniProt Q03405); assay: Vitronectin binding assay (ELISA); settings: 20 nM biotinylated suPAR, 20 nM uPA1–48
T1 construct: sUPAR, soluble truncated form of the urokinase receptor; made in house; host or cells: suPAR: baculovirus-infected Sf9 cells; uPA1-48: recombinant yeast; vitronectin: purified from human plasma
T1 sequence (Q03405 23-305 limits assumed, one chain of several): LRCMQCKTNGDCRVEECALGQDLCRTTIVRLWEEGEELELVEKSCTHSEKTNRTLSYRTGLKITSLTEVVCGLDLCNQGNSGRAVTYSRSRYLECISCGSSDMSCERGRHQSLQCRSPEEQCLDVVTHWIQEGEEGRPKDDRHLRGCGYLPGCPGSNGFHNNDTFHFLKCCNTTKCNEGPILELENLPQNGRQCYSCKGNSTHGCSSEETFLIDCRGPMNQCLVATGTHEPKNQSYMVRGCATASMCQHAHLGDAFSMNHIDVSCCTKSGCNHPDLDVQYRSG
Method: Vitronectin was purified from human plasma by the method of Yatohgo et al, Cello Struct.and Funct. 13: 281–292 (1988). Purified vitronectin was diluted to 20 μg/ml in PBS containing 1 mM CaCl2 and 0.5 mM MgCl2, dispensed at 50 μl/well into Immulon II wells (Dynatech, Chantilly, Va.), incubated overnight at 4° C. and washed with PBS/BSA. Biotinylated sUPAR was diluted to 20 nM in PBS/BSA, incubated with or without test ligand for 30 minutes at room temperature (22° C.), dispensed at 100 μl/well and incubated for 90 minutes. Wells were then washed and horseradish peroxidase (HRP)-conjugated streptavidin was added at 0.4 μg/ml in PBS/2% BSA for 1 hour followed by washing and addition of 100 μl/well TMB substrate. The color development was stopped with 100 μl of 0.8N H2SO4 and the absorbance at 450 nm measured in a 96 well plate reader (Dynatech, Chantilly, Va.). Antagonistic effects of test ligands were measured as described above except the ligands were incubated with 20 nM biotinylated suPAR in the presence of 20 nM uPA1–48.
In order to analyze the effects of the various peptide ligands on the uPAR:vitronectin interaction, we developed an in vitro ELISA based assay for this interaction, in which biotinylated suPAR and uPA1–48 bind to immobilized, urea purified vitronectin, and the bound sUPAR is detected with HRP conjugated streptavidin. Under the conditions of the assay binding of biotinylated uPAR to vitronectin is strictly dependent on uPA1–48, as shown in FIG. 1.

soluble uPAR = soluble uPAR (Homo sapiens, UniProt Q03405); assay type: binding; set-up: sUPAR, soluble truncated form of the urokinase receptor; made in house; host or cells: baculovirus-infected Sf9 insect cells; settings: for % Inhibition 2.5 uM: 2500.0; for % Inhibition 5 uM: 5000.0
Sequence of soluble uPAR (Q03405 23-305 limits assumed): as the sequence (Q03405 23-305 limits assumed, one chain of several) above
Method: Streptavidin, 100 μl (0.1 mg/ml) in 50 mM Na2CO3, pH 9.6, was added to MaxiSorp wells (Nunc), incubated overnight at 4 C, and then washed with PBS/BSA. Biotinylated sUPAR (25 nM in PBS/BSA) was added to the wells and incubated for 2 hours at room temperature prior to washing. Competitive peptide inhibitors were added to the wells immediately prior to addition of the bacteriophage. The wells were incubated for one hour at room temperature, then washed and bound bacteriophage eluted with 6M urea in 0.1N HCl, pH 2.5. After 15 minutes, the urea eluate was brought to neutral pH by addition of 2M Tris base and the bacteriophage titers of input stocks and elutions measured by plaque formation assay. Results were expressed as the percent of input bacteriophage which bind to the wells. Alternatively, the amount of bacteriophage was determined in an ELISA where phage were preincubated with HRP-conjugated anti-M13 antibody for 30 minutes at room temperature before dispensing into wells prepared as above and incubated for one hour at room temperature. The final anti-M13 conjugate dilution was 1:4000. After washing, TMB substrate (100 μl/well) was added and color development was stopped with 0.8N H2SO4 (100 μl/well). The absorbance at 450 nm was then measured in a 96 well plate reader.
In a uPAR binding assay, the following analogs were tested in a competition with phage displaying either peptide 25 or peptide 9. The analogs comprise both natural and unnatural amino acids.
The analogs were tested in an assay utilizing soluble uPAR, similar to the method described in Example 2. The analogs were tested for their ability to compete with phage displaying either peptide 9 or peptide 25. Analogs 3–61 were tested in competition with peptide 25. Analogs 62–96 were tested in competition with peptide 9. Approximately 10^8 plaque forming units of the phage were used in the assay.
The analogs were tested at a concentration at 40 μM in the uPAR competition assay with phage displaying peptide 25. The results below show which analogs were active.
Analogs 31–61 were tested for their ability to compete with phage displaying peptide 25. The active analogs were tested further at two concentrations, 5 μM and 2.5 μM. These concentrations were calculated based on the synthesis reactions. However, the sequences * were further tested and determined to contain high amounts of amino acids and the quantity tested could have been higher than 5 μM or 2.5 μM.

| Molecule | effect on binding of uPA1–48:uPAR complexes to vitronectin [1] | % Inhibition 2.5 uM (soluble uPAR) | % Inhibition 5 uM (soluble uPAR) |
| --- | --- | --- | --- |
| CSCC[C@H](NC(=O)[C@H](Cc1ccc(O)cc1)NC(=O)CNC(=O)[C@H](CC(C)C)NC(=O)[C@H](CO)NC(=O)[C@H](CC(C)C)NC(=O)[C@H](Cc1c[nH]cn1)NC(=O)[C@H](Cc1c[nH]cn1)NC(=O)[C@H](Cc1cccc2ccccc12)NC(=O)[C@@H](NC(=O)[C@H](CO)NC(=O)[C@H](CCC(=O)O)NC(=O)[C@H](C)N)[C@@H](C)O)C(=O)N[C@@H](Cc1ccc(O)cc1)C(=O)N[C@H](C(=O)N[C@@H](CC(C)C)C(=O)N[C@@H](CC(N)=O)C(N)=O)[C@@H](C)O [Analog 35, AESTXHHLSLGYMYTLN] (H-AEST[1Nal]HHLSLGYMYTLN-NH2) | – | 70% | 94% |
| CSCC[C@H](NC(=O)[C@H](Cc1ccc(O)cc1)NC(=O)CNC(=O)[C@H](CC(C)C)NC(=O)[C@H](CO)NC(=O)[C@H](CC(C)C)NC(=O)[C@H](Cc1c[nH]cn1)NC(=O)[C@H](Cc1c[nH]cn1)NC(=O)[C@H](Cc1ccc2ccccc2c1)NC(=O)[C@@H](NC(=O)[C@H](CO)NC(=O)[C@H](CCC(=O)O)NC(=O)[C@H](C)N)[C@@H](C)O)C(=O)N[C@@H](Cc1ccc(O)cc1)C(=O)N[C@H](C(=O)N[C@@H](CC(C)C)C(=O)N[C@@H](CC(N)=O)C(N)=O)[C@@H](C)O [Analog 36] (H-AEST[2Nal]HHLSLGYMYTLN-NH2) | – | 61% | 78% |
| CSCC[C@H](NC(=O)[C@H](Cc1ccc(O)cc1)NC(=O)CNC(=O)[C@H](CC(C)C)NC(=O)[C@@H](CO)NC(=O)[C@H](CC(C)C)NC(=O)[C@H](Cc1c[nH]cn1)NC(=O)[C@H](Cc1c[nH]cn1)NC(=O)[C@H](Cc1ccc(O)cc1)NC(=O)[C@@H](NC(=O)[C@H](CO)NC(=O)[C@H](CCC(=O)O)NC(=O)[C@H](C)N)[C@@H](C)O)C(=O)N[C@@H](Cc1ccc(O)cc1)C(=O)N[C@H](C(=O)N[C@@H](CC(C)C)C(=O)N[C@@H](CC(N)=O)C(N)=O)[C@@H](C)O [Analog 54] (H-AESTYHHL[dS]LGYMYTLN-NH2) | – | 73% | 86% |
| CCCC[C@H](NC(=O)[C@H](Cc1ccc(O)cc1)NC(=O)CNC(=O)[C@H](CC(C)C)NC(=O)[C@H](CO)NC(=O)[C@H](CC(C)C)NC(=O)[C@H](Cc1c[nH]cn1)NC(=O)[C@H](Cc1c[nH]cn1)NC(=O)[C@H](Cc1ccc(O)cc1)NC(=O)[C@@H](NC(=O)[C@H](CO)NC(=O)[C@H](CCC(=O)O)NC(=O)[C@H](C)N)[C@@H](C)O)C(=O)N[C@@H](Cc1ccc(O)cc1)C(=O)N[C@H](C(=O)N[C@@H](CC(C)C)C(=O)N[C@@H](CC(N)=O)C(N)=O)[C@@H](C)O [Analog 44, AESTYHHLSLGYJYTLN] (H-AESTYHHLSLGY[Nle]YTLN-NH2) | – | 84* % | 91% |
| CSCC[C@H](NC(=O)[C@H](Cc1ccc(O)cc1)NC(=O)CNC(=O)[C@H](CC(C)C)NC(=O)[C@H](CO)NC(=O)[C@H](CC(C)C)NC(=O)[C@H](Cc1c[nH]cn1)NC(=O)[C@H](Cc1c[nH]cn1)NC(=O)[C@H](Cc1ccc(O)cc1)NC(=O)[C@@H](NC(=O)[C@H](CO)NC(=O)[C@@H](CCC(=O)O)NC(=O)[C@H](C)N)[C@@H](C)O)C(=O)N[C@@H](Cc1ccc(O)cc1)C(=O)N[C@H](C(=O)N[C@@H](CC(C)C)C(=O)N[C@@H](CC(N)=O)C(N)=O)[C@@H](C)O [Analog 47] (H-A[dE]STYHHLSLGYMYTLN-NH2) | – | 35% | 61% |
| H-AESTFHHLSLGYMYTLN-NH2 [Analog 34] | – | 38% | 47% |
| CC[C@H](NC(=O)[C@H](Cc1ccc(O)cc1)NC(=O)CNC(=O)[C@H](CC(C)C)NC(=O)[C@H](CO)NC(=O)[C@H](CC(C)C)NC(=O)[C@H](Cc1c[nH]cn1)NC(=O)[C@H](Cc1c[nH]cn1)NC(=O)[C@H](Cc1ccc(O)cc1)NC(=O)[C@@H](NC(=O)[C@H](CO)NC(=O)[C@H](CCC(=O)O)NC(=O)[C@H](C)N)[C@@H](C)O)C(=O)N[C@@H](Cc1ccc(O)cc1)C(=O)N[C@H](C(=O)N[C@@H](CC(C)C)C(=O)N[C@@H](CC(N)=O)C(N)=O)[C@@H](C)O [Analog 45] (H-AESTYHHLSLGY[Abu]YTLN-NH2) | – | 31% | 59% |

More lines, now with the values ahead:

| effect on binding of uPA1–48:uPAR complexes to vitronectin [1] | % Inhibition 2.5 uM (soluble uPAR) | % Inhibition 5 uM (soluble uPAR) | Molecule |
| --- | --- | --- | --- |
| blocked | – | – | somatomedin B domain of vitronectin: recombinant somatomedin B domain of vitronectin (DQESCKGRCTEGFNVDKKCQCDELCSYYQSCCTDYTAECKPQVT) |
| – | 56% | 80% | CSCC[C@H](NC(=O)[C@H](Cc1ccc(O)cc1)NC(=O)CNC(=O)[C@@H](CC(C)C)NC(=O)[C@H](CO)NC(=O)[C@H](CC(C)C)NC(=O)[C@H](Cc1c[nH]cn1)NC(=O)[C@H](Cc1c[nH]cn1)NC(=O)[C@H](Cc1ccc(O)cc1)NC(=O)[C@@H](NC(=O)[C@H](CO)NC(=O)[C@H](CCC(=O)O)NC(=O)[C@H](C)N)[C@@H](C)O)C(=O)N[C@@H](Cc1ccc(O)cc1)C(=O)N[C@H](C(=O)N[C@@H](CC(C)C)C(=O)N[C@@H](CC(N)=O)C(N)=O)[C@@H](C)O [Analog 55] (H-AESTYHHLS[dL]GYMYTLN-NH2) |
| – | 32% | 55% | CSCC[C@H](NC(=O)[C@H](Cc1ccc(O)cc1)NC(=O)CNC(=O)[C@H](CC(C)C)NC(=O)[C@H](CO)NC(=O)[C@H](CC(C)C)NC(=O)[C@H](Cc1c[nH]cn1)NC(=O)[C@H](Cc1c[nH]cn1)NC(=O)[C@H](Cc1ccc(O)cc1)NC(=O)[C@@H](NC(=O)[C@H](CO)NC(=O)[C@H](CCC(=O)O)NC(=O)[C@H](C)N)[C@@H](C)O)C(=O)N[C@@H](Cc1ccc(O)cc1)C(=O)N[C@H](C(=O)N[C@@H](CC(C)C)C(=O)N[C@H](CC(N)=O)C(N)=O)[C@@H](C)O [Analog 61] (H-AESTYHHLSLGYMYTL[dN]-NH2) |
| – | 22% | 75% | CSCC[C@H](NC(=O)[C@H](Cc1ccc(O)cc1)NC(=O)CNC(=O)[C@H](CC(C)C)NC(=O)[C@H](CO)NC(=O)[C@H](CC(C)C)NC(=O)[C@H](Cc1c[nH]cn1)NC(=O)[C@H](Cc1c[nH]cn1)NC(=O)[C@H](Cc1ccc(O)cc1)NC(=O)[C@@H](NC(=O)[C@H](CO)NC(=O)[C@H](CCC(=O)O)NC(=O)[C@H](C)N)[C@@H](C)O)C(=O)N[C@@H](Cc1ccc(O)cc1)C(=O)N[C@H](C(=O)N[C@H](CC(C)C)C(=O)N[C@@H](CC(N)=O)C(N)=O)[C@@H](C)O [Analog 60] (H-AESTYHHLSLGYMYT[dL]N-NH2) |
